Source: patent US11111237B2, “Bicyclic compound and use thereof” (SK BIOPHARMACEUTICALS CO., LTD., priority 2019, dated 2021)
Counter-ions that a name gives are not always drawn.

biological target: PRMT5-MEP50 enzyme complex (Homo sapiens (Human), UniProt O14744); assay: PRMT5 enzyme activity in vitro assay (methylation of histone H4R3, ELISA absorbance at 450 nm); type: biochemical; details: SAM, histone H4 peptide, room temperature 2 hours, 8 points from 10 μM to 0.128 nM
Experimental: Method for Measuring Enzyme Activity
In vitro assay: PRMT5-MEP50 enzyme complex, cofactor S-adenosylmethionine (SAM) and histone H4 peptide were reacted in vitro, and methylation of arginine (H4R3)—which is the third amino acid of histone H4—was measured in order to measure the enzyme activity of PRMT5.
Reagents: PRMT5-MEP50 enzyme complex (Catalog No. 51045), blocking buffer (52100-B), histone methyltransferase reaction buffer 2 (4×HMT assay buffer 2, Catalog No. 52170), and primary antibody (primary antibody 4-3, Catalog No. 52150) were purchased from BPS Bioscience (USA). The histone H4 peptide (1-20 amino acids) was custom made by Komabiotech (Korea) and used. S-adenosylmethionine was purchased from NEB (New England Biolabs, USA, Catalog No. B9003S). Plates for coating histone H4 peptide, washing buffer and color development reagent were purchased from the following vendors: Plate (Immobilizer™-Amino Plate, NUNC, Denmark, Catalog No. 436023), carbonate-bicarbonate buffer (Sigma-Aldrich, USA, Catalog No. C3041), washing buffer (10×TBST, Biosesang, Korea, Catalog No. T2005), TMB ELISA substrate (Abcam, UK, Catalog No. ab210902), horseradish peroxidase (HRP)-conjugated antibody (Abcam, UK, Catalog No. ab6721).
Experimental procedure: The histone H4 peptide was diluted with carbonate-bicarbonate buffer and prepared to 100 μg/mL, and then dispensed onto the plate per 100 μL and reacted at 37° C. for 1 hour. PRMT5-MEP50 enzyme complex and S-adenosylmethionine were diluted with histone methyltransferase reaction buffer to prepare 5 μg/mL and 2 μM, respectively, and then 20 μL of PRMT5-MEP50 enzyme complex and 25 μL of S-adenosylmethionine were dispensed onto the plate prepared above. 5 μL of the compound diluted with 10% dimethyl sulfoxide solution was added thereto and reacted at room temperature for 2 hours (final volume=50 μL). The concentration of the compound was diluted 1:5 from 10 μM until the lowest concentration of 0.128 nM, and 8 points were used for the test. After preparing the primary antibody by diluting 1:2000 with blocking buffer, 100 μL was added to the plate and reacted at room temperature for 1 hour. After preparing horseradish peroxidase-conjugated antibody by diluting 1:10,000 with blocking buffer, 100 μL was added to the plate and reacted at room temperature for 1 hour. 100 μL of TMB substrate was added and reacted for 3 minutes at room temperature, and 100 μL of 1 N sulfuric acid was then added to terminate the reaction. Then, the absorbance at 450 nm was measured to calculate the IC50 value of the compound. (+++: 1 to 100 nM, ++: greater than 100 to 1,000 nM, +: greater than 1,000 to 10,000 nM)

Chain of PRMT5-MEP50 enzyme complex (O14744 2-637): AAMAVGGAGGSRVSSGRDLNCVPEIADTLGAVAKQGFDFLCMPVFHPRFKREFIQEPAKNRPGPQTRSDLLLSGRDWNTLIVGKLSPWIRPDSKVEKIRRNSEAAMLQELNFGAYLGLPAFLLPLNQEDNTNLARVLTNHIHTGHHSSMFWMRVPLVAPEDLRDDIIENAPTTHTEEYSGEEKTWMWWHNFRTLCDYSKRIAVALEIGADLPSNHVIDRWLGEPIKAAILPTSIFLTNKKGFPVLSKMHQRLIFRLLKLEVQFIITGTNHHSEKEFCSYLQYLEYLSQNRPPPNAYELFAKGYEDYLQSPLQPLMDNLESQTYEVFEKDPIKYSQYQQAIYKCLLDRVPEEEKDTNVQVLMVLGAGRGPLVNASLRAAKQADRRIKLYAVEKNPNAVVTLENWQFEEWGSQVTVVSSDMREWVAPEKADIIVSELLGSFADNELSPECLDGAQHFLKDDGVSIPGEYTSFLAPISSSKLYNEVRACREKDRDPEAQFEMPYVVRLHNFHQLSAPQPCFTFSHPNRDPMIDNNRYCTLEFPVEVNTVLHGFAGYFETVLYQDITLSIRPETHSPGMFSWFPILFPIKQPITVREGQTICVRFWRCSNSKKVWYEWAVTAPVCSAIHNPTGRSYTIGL
Chain of PRMT5-MEP50 enzyme complex (Q9BQA1 2-342 partner): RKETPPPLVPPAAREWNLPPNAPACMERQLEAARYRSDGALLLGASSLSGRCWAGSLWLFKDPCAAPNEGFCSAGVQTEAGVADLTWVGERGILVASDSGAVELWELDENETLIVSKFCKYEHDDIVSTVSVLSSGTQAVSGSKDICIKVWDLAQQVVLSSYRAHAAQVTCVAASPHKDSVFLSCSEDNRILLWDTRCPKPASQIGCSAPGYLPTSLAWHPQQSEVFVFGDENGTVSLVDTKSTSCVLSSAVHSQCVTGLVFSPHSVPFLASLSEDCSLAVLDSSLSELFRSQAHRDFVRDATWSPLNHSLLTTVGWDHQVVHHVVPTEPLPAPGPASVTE

| Compound | IC50 [nM] |
| --- | --- |
| O=C1c2ccc(CN3CCC[C@H]3CO)cc2OCCN1C[C@H](O)CN1CCc2ccccc2C1 [Example 46, 4-[(2R)-3-(3,4-dihydro-1H-isoquinolin-2-yl)-2-hydroxy-propyl]-8-[[(2S)-2-(hydroxymethyl)pyrrolidin-1-yl]methyl]-2,3-dihydro-1,4-benzoxazepin-5-one] | 100 to 1000 |
| Cn1cc(-c2ccc3c(c2)OCCN(C[C@H](O)CN2CCc4ccccc4C2)C3=O)cn1 [Example 232, 4-[(2R)-3-(3,4-dihydro-1H-isoquinolin-2-yl)-2-hydroxy-propyl]-8-(1-methylpyrazol-4-yl)-2,3-dihydro-1,4-benzoxazepin-5-one] | 100 to 1000 |
| O=C1c2ccc(C3=CCNCC3)cc2OCCN1C[C@H](O)CN1CCc2ccccc2C1 [Example 15, 4-[(2R)-3-(3,4-dihydro-1H-isoquinolin-2-yl)-2-hydroxy-propyl]-8-(1,2,3,6-tetrahydropyridin-4-yl)-2,3-dihydro-1,4-benzoxazepin-5-one] | 1 to 100 |
| C[C@@H]1CN(C[C@H](O)CN2CCc3ccccc3C2)C(=O)c2ccc(OC3CC4CCC(C3)N4CCO)cc2O1 (stereo partly shown) [Example 241] | 100 to 1000 |
| CCC(=O)c1ccc2c(c1)OCCN(C[C@H](O)CN1CCc3ccccc3C1)C2=O [Example 214, 4-[(2R)-3-(3,4-dihydro-1H-isoquinolin-2-yl)-2-hydroxy-propyl]-8-propanoyl-2,3-dihydro-1,4-benzoxazepin-5-one] | 100 to 1000 |
| CC(=O)N1CC[C@H](Oc2ccc3c(c2)N(C)CCN(C[C@H](O)CN2CCc4ccccc4C2)C3=O)C1 [Example 124, 8-[(3S)-1-acetylpyrrolidin-3-yl]oxy-4-[(2R)-3-(3,4-dihydro-1H-isoquinolin-2-yl)-2-hydroxy-propyl]-1-methyl-2,3-dihydro-1,4-benzodiazepin-5-one] | 100 to 1000 |
| COc1ccc2c(c1)CCCN(CC(O)CN1CCc3ccccc3C1)C2=O (stereo not shown) [Example 2, 2-[3-(3,4-dihydro-1H-isoquinolin-2-yl)-2-hydroxy-propyl]-7-methoxy-4,5-dihydro-3H-2-benzazepin-1-one] | 100 to 1000 |
| CNCC#Cc1ccc2c(c1)OCCN(C[C@H](O)CN1CCc3ccccc3C1)C2=O [Example 229, 4-[(2R)-3-(3,4-dihydro-1H-isoquinolin-2-yl)-2-hydroxy-propyl]-8-[3-(methylamino)pro-1-pynyl]-2,3-dihydro-1,4-benzoxazepin-5-one] | 100 to 1000 |
| O=C1c2ccc(OCC3CCCO3)cc2OCCN1C[C@H](O)CN1CCc2ccccc2C1 (stereo partly drawn) [Example 67, 4-[(2R)-3-(3,4-dihydro-1H-isoquinolin-2-yl)-2-hydroxy-propyl]-8-(tetrahydrofuran-2-ylmethoxy)-2,3-dihydro-1,4-benzoxazepin-5-one] | 100 to 1000 |
| O=C1c2ccc(OC3CCN(C4CCC4)CC3)cc2OCCN1C[C@H](O)CN1CCc2ccccc2C1 [Example 91, 8-[(1-cyclobutyl-4-piperidyl)oxy]-4-[(2R)-3-(3,4-dihydro-1H-isoquinolin-2-yl)-2-hydroxy-propyl]-2,3-dihydro-1,4-benzoxazepin-5-one] | 100 to 1000 |
| O=C(c1ccc2c(c1)OCCN(C[C@H](O)CN1CCc3ccccc3C1)C2=O)N1CCCCC1 [Example 176, 4-[(2R)-3-(3,4-dihydro-1H-isoquinolin-2-yl)-2-hydroxy-propyl]-8-(piperidine-1-carbonyl)-2,3-dihydro-1,4-benzoxazepin-5-one] | 100 to 1000 |
| C[C@@H]1CN(C[C@H](O)CN2CCc3ccccc3C2)C(=O)c2ccc(CN3CC4(COC4)C3)cc2O1 [Example 250, (2R)-4-[(2R)-3-(3,4-dihydro-1H-isoquinolin-2-yl)-2-hydroxypropyl]-2-methyl-8-(2-oxa-6-azaspiro[3.3]heptan-6-ylmethyl)-2,3-dihydro-1,4-benzoxazepin-5-one] | 100 to 1000 |

Results, then the compound that gave them:

| IC50 [nM] | Compound |
| --- | --- |
| 1 to 100 | O=C1c2ccc(OCc3ccc(F)cn3)cc2OCCN1C[C@H](O)CN1CCc2ccccc2C1 [Example 63, 4-[(2R)-3-(3,4-dihydro-1H-isoquinolin-2-yl)-2-hydroxy-propyl]-8-[(5-fluoro-2-pyridyl)methoxy]-2,3-dihydro-1,4-benzoxazepin-5-one] |
| 1 to 100 | C[C@@H]1CN(C[C@H](O)CN2CCc3ccccc3C2)C(=O)c2ccc(OC3CCN(CCO)CC3)cc2O1 [Example 219, (2R)-4-[(2R)-3-(3,4-dihydro-1H-isoquinolin-2-yl)-2-hydroxy-propyl]-8-[[1-(2-hydroxyethyl)-4-piperidyl]oxy]-2-methyl-2,3-dihydro-1,4-benzoxazepin-5-one] |
| 100 to 1000 | CC(C)N1CC=C(c2ccc3c(c2)OCCN(C[C@H](O)CN2CCc4ccccc4C2)C3=O)CC1 [Example 19, 4-[(2R)-3-(3,4-dihydro-1H-isoquinolin-2-yl)-2-hydroxy-propyl]-8-(1-isopropyl-3,6-dihydro-2H-pyridin-4-yl)-2,3-dihydro-1,4-benzoxazepin-5-one] |
| 1 to 100 | O=C1c2ccc(Cl)cc2CCCN1C[C@H](O)CN1CCc2ccccc2C1 [Example 154, 7-chloro-2-[(2R)-3-(3,4-dihydro-1H-isoquinolin-2-yl)-2-hydroxy-propyl]-4,5-dihydro-3H-2-benzazepin-1-one] |
| 1 to 100 | O=C1c2ccc(CCC(F)(F)F)cc2OCCN1C[C@H](O)CN1CCc2ccccc2C1 [Example 13, 4-[(2R)-3-(3,4-dihydro-1H-isoquinolin-2-yl)-2-hydroxy-propyl]-8-(3,3,3-trifluoropropyl)-2,3-dihydro-1,4-benzoxazepin-5-one] |
| 100 to 1000 | CN1CCC(Oc2ccc3c(c2)OCCN(C[C@H](O)CN2CCc4ccccc4C2)C3=O)C(F)C1 (stereo partly drawn) [Example 206, 4-[(2R)-3-(3,4-dihydro-1H-isoquinolin-2-yl)-2-hydroxy-propyl]-8-[(3-fluoro-1-methyl-4-piperidyl)oxy]-2,3-dihydro-1,4-benzoxazepin-5-one] |
| 100 to 1000 | C[C@@H]1CN(C[C@H](O)CN2CCc3ccccc3C2)C(=O)c2ccc(CN3CCC4(CC3)COC4)cc2O1 [Example 252, (2R)-4-[(2R)-3-(3,4-dihydro-1H-isoquinolin-2-yl)-2-hydroxypropyl]-2-methyl-8-(2-oxa-7-azaspiro[3.5]nonan-7-ylmethyl)-2,3-dihydro-1,4-benzoxazepin-5-one] |
| 100 to 1000 | CC(c1ccc2c(n1)OC(C)(C)CN(C[C@H](O)CN1CCc3ccccc3C1)C2=O)N1CC2(COC2)C1 (stereo partly drawn) [Example 247, 4-[(2R)-3-(3,4-dihydro-1H-isoquinolin-2-yl)-2-hydroxy-propyl]-2,2-dimethyl-8-[1-(2-oxa-6-azaspiro[3.3]heptan-6-yl)ethyl]-3H-pyrido[3,2-f][1,4]oxazepin-5-one] |
| 100 to 1000 | CN1CCC(COc2ccc3c(c2)OCCN(C[C@H](O)CN2CCc4ccccc4C2)C3=O)C1 (stereo partly drawn) [Example 106, 4-[(2R)-3-(3,4-dihydro-1H-isoquinolin-2-yl)-2-hydroxy-propyl]-8-[(1-methylpyrrolidin-3-yl)methoxy]-2,3-dihydro-1,4-benzoxazepin-5-one] |
| 1 to 100 | CC(=O)N1CC(Oc2ccc3c(c2)O[C@H](C)CN(C[C@H](O)CN2CCc4ccccc4C2)C3=O)C1 [Example 142, (2R)-8-(1-acetylazetidin-3-yl)oxy-4-[(2R)-3-(3,4-dihydro-1H-isoquinolin-2-yl)-2-hydroxypropyl]-2-methyl-2,3-dihydro-1,4-benzoxazepin-5-one] |
| 100 to 1000 | CN1CCN(C[C@H](O)CN2CCc3ccccc3C2)C(=O)c2ccc(OC3CCNCC3F)cc21 (stereo partly drawn) [Example 135, 4-[(2R)-3-(3,4-dihydro-1H-isoquinolin-2-yl)-2-hydroxy-propyl]-8-[(3-fluoro-4-piperidyl)oxy]-1-methyl-2,3-dihydro-1,4-benzodiazepin-5-one; dihydrochloride] |
| 100 to 1000 | O=C(c1ccc2c(c1)OCCN(C[C@H](O)CN1CCc3ccccc3C1)C2=O)N1CCC(F)(F)C1 [Example 177, 8-(3,3-difluoropyrrolidin-1-carbonyl)-4-[(2R)-3-(3,4-dihydro-1H-isoquinolin-2-yl)-2-hydroxy-propyl]-2,3-dihydro-1,4-benzoxazepin-5-one] |
| 100 to 1000 | CC(c1ccc2c(c1)OCCN(C[C@H](O)CN1CCc3ccccc3C1)C2=O)N1CCOCC1 (stereo partly drawn) [Example 221, 4-[(2R)-3-(3,4-dihydro-1H-isoquinolin-2-yl)-2-hydroxy-propyl]-8-(1-morpholinoethyl)-2,3-dihydro-1,4-benzoxazepin-5-one] |
